Here are results for 21 compounds from ChEMBL document CHEMBL5214940, “New potent ciprofloxacin-uracil conjugates as DNA gyrase and topoisomerase IV inhibitors against methicillin-resistant Staphylococcus aureus” (Bioorg Med Chem, 2022).

Each structure is given as a SMILES string. pIC50: −log10 of the molar value. In brackets after ≈: the same amount, converted by molar mass.

The subject of assay [1] is Escherichia coli. Kind of assay: Antibacterial activity against […] assessed as zone of inhibition by cup-plate agar diffusion method. It is filed as functional.
The subject of assay [2] is Klebsiella pneumoniae. The experiment in a line: Antibacterial activity against Klebsiella pneumoniae ATCC10031 assessed as zone of inhibition by cup-plate agar diffusion method. It is filed as functional.
In assay [3] the test system is Pseudomonas aeruginosa. The experiment in a line: Antibacterial activity against Pseudomonas aeruginosa ATCC27853 assessed as zone of inhibition by cup-plate agar diffusion method. It is filed as functional.
Assay [4] concerns Staphylococcus aureus. Kind of assay: Antibacterial activity against Staphylococcus aureus ATCC6538 assessed as zone of inhibition by cup-plate agar diffusion method. It is filed as functional.
In assay [5] the test system is Staphylococcus aureus. Kind of assay: Antibacterial activity against methicillin-resistant Staphylococcus aureus AUMC 261 assessed as zone of inhibition by cup-plate agar diffusion method. It is filed as functional.
Assay [6] deals with DNA gyrase (Escherichia coli, UniProt P0AES4+P0AES6). Kind of assay: Inhibition of Escherichia coli DNA gyrase supercoiling activity using […] as substrate incubated for 15 to 30 mins by agarose gel electrophoresis analysis. It is filed as protein-complex assay.
A short description of assay [7]: Inhibition of Escherichia coli topoisomerase 4 mediated relaxation of supercoiled pHOT1 DNA at expense of ATP hydrolysis by ethidium bromide staining based agarose gel electrophoresis.

With `COc1ccc(/C=C2\C(=N)N=C(SCC(=O)N3CCN(c4cc5c(cc4F)c(=O)c(C(=O)O)cn5C4CC4)CC3)NC2=O)cc1OC`, the minimal inhibitory concentration (MIC) is 4.71 µM (≈ 3.12 µg/mL) in assay [1], 4.71 µM (≈ 3.12 µg/mL) in assay [2], 2.97 µM (≈ 1.97 µg/mL) in assay [3] and > 100 µM in assay [4].
Regarding `COc1ccc(NC(=O)CSc2nc(NC(=O)CN3CCN(c4cc5c(cc4F)c(=O)c(C(=O)O)cn5C4CC4)CC3)cc(=O)[nH]2)cc1`, the minimal inhibitory concentration (MIC) in assay [1] is 4.61 µM (≈ 3.12 µg/mL); in assay [2], 18.5 µM (≈ 12.5 µg/mL); in assay [3], > 100 µM; in assay [4], > 100 µM.
Consider `O=C(CSc1nc(NC(=O)CN2CCN(c3cc4c(cc3F)c(=O)c(C(=O)O)cn4C3CC3)CC2)cc(=O)[nH]1)Nc1ccccc1`, for which the MIC is 9.66 µM (≈ 6.26 µg/mL) in assay [1], 19.3 µM (≈ 12.5 µg/mL) in assay [2], > 100 µM in assay [3] and > 100 µM in assay [4].
As to `CCCCSc1nc(NC(=O)CN2CCN(c3cc4c(cc3F)c(=O)c(C(=O)O)cn4C3CC3)CC2)cc(=O)[nH]1`, the MIC is 2.73 µM (≈ 1.56 µg/mL) in assay [1], 5.47 µM (≈ 3.12 µg/mL) in assay [2], > 100 µM in assay [3] and 17.5 µM (≈ 10 µg/mL) in assay [4].
Consider `CSc1nc(NC(=O)CN2CCN(c3cc4c(cc3F)c(=O)c(C(=O)O)cn4C3CC3)CC2)cc(=O)[nH]1`, for which the MIC in assay [1] is 2.95 µM (≈ 1.56 µg/mL); in assay [2], 5.91 µM (≈ 3.12 µg/mL); in assay [3], > 100 µM; in assay [4], 2.37 µM (≈ 1.25 µg/mL); in assay [5], 0.046 µM (≈ 0.0243 µg/mL). Further, the pIC50 in assay [6] is 5.24; in assay [7] it was 5.11.
On to `O=C(O)c1cn(C2CC2)c2cc(N3CCNCC3)c(F)cc2c1=O` [CIPROFLOXACIN], for which the MIC stood at 0.6 µM (≈ 0.199 µg/mL) in assay [1]; 1.21 µM (≈ 0.401 µg/mL) in assay [2]; 0.6 µM (≈ 0.199 µg/mL) in assay [3]; 7.58 µM (≈ 2.51 µg/mL) in assay [4]; 0.57 µM (≈ 0.189 µg/mL) in assay [5]. This compound showed a pIC50 in assay [7] of 5.09.
Consider `O=C(CN1CCN(c2cc3c(cc2F)c(=O)c(C(=O)O)cn3C2CC2)CC1)Nc1cc(=O)[nH]c(=O)[nH]1`, for which the MIC in assay [1] is 0.78 µM (≈ 0.389 µg/mL); in assay [2], 1.57 µM (≈ 0.783 µg/mL); in assay [3], > 100 µM; in assay [4] it was 1.25 µM (≈ 0.623 µg/mL); in assay [5], 0.031 µM (≈ 0.0155 µg/mL). Further, the pIC50 in assay [6] is 5.76; in assay [7], 5.36.
As to `N=C1N=C(SCC(=O)N2CCN(c3cc4c(cc3F)c(=O)c(C(=O)O)cn4C3CC3)CC2)NC(=O)/C1=C/c1ccc(F)cc1`, the MIC in assay [1] is 5.03 µM (≈ 3.12 µg/mL); in assay [2], 20.2 µM (≈ 12.5 µg/mL); in assay [3] it was > 100 µM; in assay [4], > 100 µM.
Regarding `N=C1N=C(SCC(=O)N2CCN(c3cc4c(cc3F)c(=O)c(C(=O)O)cn4C3CC3)CC2)NC(=O)/C1=C/c1ccccc1`, the MIC was 1.3 µM (≈ 0.783 µg/mL) in assay [1], 5.18 µM (≈ 3.12 µg/mL) in assay [2], 2.59 µM (≈ 1.56 µg/mL) in assay [3] and > 100 µM in assay [4].
Consider `Cn1c(NC(=O)CN2CCN(c3cc4c(cc3F)c(=O)c(C(=O)O)cn4C3CC3)CC2)cc(=O)n(C)c1=O`, for which the MIC in assay [1] was 1.48 µM (≈ 0.779 µg/mL); in assay [2] it was 2.97 µM (≈ 1.56 µg/mL); in assay [3] it was 2.97 µM (≈ 1.56 µg/mL); in assay [4] it was > 100 µM.
On to `Cc1ccc(NC(=O)CSc2nc(NC(=O)CN3CCN(c4cc5c(cc4F)c(=O)c(C(=O)O)cn5C4CC4)CC3)cc(=O)[nH]2)cc1`, for which the MIC in assay [1] was 18.9 µM (≈ 12.5 µg/mL); in assay [2], 37.8 µM (≈ 25 µg/mL); in assay [3], > 100 µM; in assay [4], > 100 µM.
Take `C=CCSc1nc(NC(=O)CN2CCN(c3cc4c(cc3F)c(=O)c(C(=O)O)cn4C3CC3)CC2)cc(=O)[nH]1`: the MIC in assay [1] is 11.3 µM (≈ 6.26 µg/mL); in assay [2] it was 22.6 µM (≈ 12.5 µg/mL); in assay [3], > 100 µM; in assay [4], 18.1 µM (≈ 10 µg/mL).
Consider `COc1cc(/C=C2\C(=N)N=C(SCC(=O)N3CCN(c4cc5c(cc4F)c(=O)c(C(=O)O)cn5C4CC4)CC3)NC2=O)ccc1O`, for which the MIC in assay [1] was 2.41 µM (≈ 1.56 µg/mL); in assay [2] it was 4.81 µM (≈ 3.12 µg/mL); in assay [3], > 100 µM; in assay [4], 7.58 µM (≈ 4.92 µg/mL); in assay [5] it was 1.57 µM (≈ 1.02 µg/mL).
As for `N=C1N=C(SCC(=O)N2CCN(c3cc4c(cc3F)c(=O)c(C(=O)O)cn4C3CC3)CC2)NC(=O)/C1=C/c1ccc(Br)cc1`, the MIC was 4.59 µM (≈ 3.13 µg/mL) in assay [1], 9.19 µM (≈ 6.26 µg/mL) in assay [2], > 100 µM in assay [3] and > 100 µM in assay [4].
Turning to `O=C(CSc1nc(NC(=O)CN2CCN(c3cc4c(cc3F)c(=O)c(C(=O)O)cn4C3CC3)CC2)cc(=O)[nH]1)Nc1ccc(Cl)cc1`, the MIC was 18.4 µM (≈ 12.5 µg/mL) in assay [1]; 4.58 µM (≈ 3.12 µg/mL) in assay [2]; > 100 µM in assay [3]; 14.7 µM (≈ 10 µg/mL) in assay [4]; 7.22 µM (≈ 4.93 µg/mL) in assay [5].
Taken in the same sequence, the figures for `COc1ccc(/C=C2\C(=N)N=C(SCC(=O)N3CCN(c4cc5c(cc4F)c(=O)c(C(=O)O)cn5C4CC4)CC3)NC2=O)cc1` were 4.94 µM (≈ 3.13 µg/mL), 2.47 µM (≈ 1.56 µg/mL), > 100 µM, 15.8 µM (≈ 10 µg/mL) and 2.43 µM (≈ 1.54 µg/mL).
For `N=C1N=C(SCC(=O)N2CCN(c3cc4c(cc3F)c(=O)c(C(=O)O)cn4C3CC3)CC2)NC(=O)/C1=C/c1ccc(Cl)cc1`, the minimum inhibitory concentration (MIC) in assay [1] is 4.91 µM (≈ 3.13 µg/mL); in assay [2], 4.91 µM (≈ 3.13 µg/mL); in assay [3], > 100 µM; in assay [4] it was > 100 µM.
For `Cn1c(=O)cc(NC(=O)CN2CCN(c3cc4c(cc3F)c(=O)c(C(=O)O)cn4C3CC3)CC2)[nH]c1=O`, the MIC in assay [1] is 3.05 µM (≈ 1.56 µg/mL); in assay [2], 6.1 µM (≈ 3.13 µg/mL); in assay [3], > 100 µM; in assay [4], > 100 µM.
With `CCCSc1nc(NC(=O)CN2CCN(c3cc4c(cc3F)c(=O)c(C(=O)O)cn4C3CC3)CC2)cc(=O)[nH]1`, the MIC is 5.61 µM (≈ 3.12 µg/mL) in assay [1], 11.2 µM (≈ 6.26 µg/mL) in assay [2], > 100 µM in assay [3] and 18 µM (≈ 10 µg/mL) in assay [4].
Turning to `COc1cc(/C=C2\C(=N)N=C(SCC(=O)N3CCN(c4cc5c(cc4F)c(=O)c(C(=O)O)cn5C4CC4)CC3)NC2=O)cc(OC)c1OC`, the MIC in assay [1] was 4.51 µM (≈ 3.12 µg/mL); in assay [2], 9.03 µM (≈ 6.26 µg/mL); in assay [3] it was > 100 µM; in assay [4] it was 4.25 µM (≈ 2.94 µg/mL); in assay [5], 0.096 µM (≈ 0.0665 µg/mL).
For `CCCn1c(=O)cc(NC(=O)CN2CCN(c3cc4c(cc3F)c(=O)c(C(=O)O)cn4C3CC3)CC2)[nH]c1=O`, the MIC was 11.6 µM (≈ 6.25 µg/mL) in assay [1], 11.6 µM (≈ 6.25 µg/mL) in assay [2], > 100 µM in assay [3] and 18.5 µM (≈ 10 µg/mL) in assay [4].
